The record followed here is US7647217B2, “Structure of the farnesoid X receptor ligand binding domain and methods of use therefor” (The Salk Institute for Biological Studies, priority 2002, dated 2010).

This experiment concerns IBABP mRNA in HT29-FXRFL cells. Nature of the experiment: Northern blot of IBABP mRNA induction in HT29 stable cell lines. The class given is cell-based, human. The method, then: 20 μg total RNA was isolated using Trizol (Invitrogen) and used for Northern blot analysis. cDNA probe for human IBABP was prepared and hybridized to the blot. Blots were normalized by β-actin expression.
HepG2 or HT29-derived cell lines were typically cultured in medium containing superstripped FBS for 24 hr before the addition of a ligand or DMSO (vehicle) for an additional 24-48 hr. Total RNA was isolated using TRIzol reagent and was resolved (10 μg/lane) on a 1% agarose, 2.2 M formaldehyde gel, transferred to a nylon membrane (Hybond N^+; Amersham Biosciences, Inc.), and cross-linked to the membrane with UV light.
cDNA probes were radiolabeled with [α-^32P]dCTP using the highprime labeling kit (Amersham Biosciences, Inc.). Membranes were hybridized using the QuikHyb hybridization solution (Stratagene, La Jolla, Calif.) according to the manufacturer's protocol. Blots were normalized for variations of RNA loading by hybridization to a control probe, either, 18 S ribosomal cDNA, or the ribosomal protein 36B4. The RNA levels were quantitated using a PhosphorImager (ImageQuant software; Molecular Dynamics, Inc., Sunnyvale, Calif.) in addition to being exposed to X-ray film.
Human colon cells HT29 (FXR null until differentiated) were infected with retroviral vectors that expressed either FXR constructs and the puromycin-resistant gene or the puromycin-resistant gene alone. Puromycin resistant cells were isolated and pooled cell populations were propagated that harbored either the vector alone (HT29-BABE), overexpressed FXR full length (HT29-FXRFL), a non-functional FXR truncated at the AF2 region (HT29-FXR-AF2), or a constitutively active FXR that has the VP16 activation domain fused N-terminal of the protein (HT29-VP16-FXR). Confirmation of the successful establishment of the different stable cell lines was established via northern blot analysis of FXR message levels in the cells (see FIG. 4A). […]
The ability of the novel compounds identified herein to induce IBABP gene expression in this cell system was also examined. Total RNA from HT29 stable cells treated overnight with fexaramine, fexarine and fexarene was probed for IBABP gene expression (see FIG. 4D).

The mark [1] stands for this setting: HT29-FXRFL, overnight treatment.

In the case of `C[C@H](CCC(=O)O)[C@H]1CC[C@H]2[C@@H]3[C@H](O)C[C@@H]4C[C@H](O)CC[C@]4(C)[C@H]3CC[C@]12C` [CDCA, chenodeoxycholic acid, reference compound], the “induction of IBABP mRNA in control lines” value (HT29-BABE or HT29-FXR-AF2 cell lines) is on record as “No induction”. Under setting [1], the “concentration of maximal activation of the IBABP gene” value amounted to 100 µM and the “induction of IBABP mRNA” value is “robust concentration dependent induction”.
